# From paper PMC6968685 (Journal of Enzyme Inhibition and Medicinal Chemistry, 2020)
# Assays:
# [1] = tested on: F21T (DNA, G4) GGGTTAGGGTTAGGGTTAGGG; assay: FRET melting; settings: 10 mM K+, 90 mM Li+; 10 mM lithium cacodylate pH 7.2; 2 µM compound, 0.2 µM oligonucleotide
# [2] = tested on: P. falciparum CQ-resistant strain W2; assay: In vitro antiplasmodial activity, SYBR Green I fluorescence-based method, strain W2; assay type: cell-based; settings: Plasmodium falciparum; chloroquine-resistant strain W2; 48 h incubation; read-out: P. falciparum strains IC50 values, W2
# Summary of the method: (§1)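 P. falciparum 3D7 and W2 cultured in human erythrocytes in RPMI with 0.5% Albumax I at 37 °C, exposed 48 h to compounds tested […]. Parasite DNA read by SYBR Green I fluorescence (ex 485/em 535 nm); IC50 by non-linear regression, mean of three independent experiments.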
# [3] = tested on: P. falciparum CQ-sensitive strain 3D7; assay: In vitro antiplasmodial activity, SYBR Green I fluorescence-based method, strain 3D7; assay type: cell-based; settings: Plasmodium falciparum; chloroquine-sensitive strain 3D7; 48 h incubation; read-out: P. falciparum strains IC50 values, 3D7
# Summary of the method: as §1
# [4] = tested on: L. donovani (MHOM/IN/00/DEVI) promastigotes; assay: In vitro antileishmanial activity, MTT assay on promastigotes; assay type: cell-based; settings: Leishmania donovani, 72 h incubation, ≥10 = no activity noted at the highest concentration tested
# Summary of the method: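 Log-phase L. donovani MHOM/IN/00/DEVI promastigotes (10^6/ml, Schneider's + 20% FCS) were exposed to graded compound concentrations (DMSO <0.5% v/v) for 72 h at 27 °C, in duplicate. Growth measured by MTT reduction (4 h, A570 nm); IC50 obtained by regression.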
# [5] = tested on: T. brucei brucei AnTat 1.9; assay: In vitro antitrypanosomal activity, Alamar Blue assay; assay type: cell-based; settings: Trypanosoma brucei; slender bloodstream trypomastigotes, AnTat 1.9 strain; read-out: Trypanosoma brucei brucei IC50 values, Trypanos Antat 1.9
# Summary of the method: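 Bloodstream parasites (2000/well) in supplemented MEM with 20% horse serum exposed to compound in duplicate for 69 h at 37 °C, then Alamar Blue added for 5 h; fluorescence read at ex 530/em 590 nm. IC50 by nonlinear regression, from three independent experiments.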
# [6] = Cytotoxicity evaluation, MTT; assay type: cell-based, human; settings: human
# Summary of the method: (§2)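 HepG2 hepatocarcinoma cells exposed to compound in duplicate, then viability measured by MTT reduction (0.5 mg/ml), formazan dissolved in DMSO and read at 570 nm against 630 nm. Viability expressed as percent of untreated cells; CC50 taken from dose-response curve, doxorubicin as positive control.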
# [7] = tested on: Plasmodium telomeric sequence FPf1T G-quadruplex; assay: FRET melting experiments, FPf1T; assay type: binding, P. falciparum; settings: 2 μM compound, 0.2 μM oligonucleotide, K+ conditions
# Protocol: (§3) These were performed with dual-labelled oligonucleotides mimicking the Plasmodium telomeric sequences FPf1T [FAM-5′(GGGTTTA)3-GGG3′-TAMRA] and FPf8T [FAM-5′ (GGGTTCA)3GGG3′-TAMRA], the Trypanosoma 9 and 11 chromosomic sequence FTrypBT (also named FEBR1T) [FAM-5′[…]3′-TAMRA], the human telomeric sequence F21T [FAM-(GGGTTA)3-GGG3′-TAMRA], and the human duplex sequence FdxT [FAM5′-[…]-hexaethyleneglycol-[…]3′-TAMRA][51]^,[52]. The oligonucleotides were pre-folded in 10 mM lithium cacodylate buffer (pH 7.2), with 10 mM KCl and 90 mM LiCl (K^+condition). The FAM emissions were recorded at 516 nm using a 492-nm excitation wavelength in the absence and presence of a single compound as a function of temperature (25–95 °C) in 96-well microplates by using a Stratagene MX3000P real-time PCR device at a rate of 1 °C·min^−1. Data were normalised between 0 and 1, and the required temperature for half-denaturation of oligonucleotides corresponding to the emission value of 0.5 was taken as the Tm. […] For each compound, three independent experiments were carried out.
# [8] = tested on: Plasmodium telomeric sequence FPf8T G-quadruplex; assay: FRET melting experiments, FPf8T; assay type: binding, P. falciparum; settings: 2 μM compound, 0.2 μM oligonucleotide, K+ conditions
# Protocol: as §3
# [9] = tested on: Trypanosoma 9 and 11 chromosomic sequence FTrypBT (FEBR1T) G-quadruplex; assay: FRET melting experiments, FtrypBT; assay type: binding, T. brucei brucei; settings: 2 μM compound, 0.2 μM oligonucleotide, K+ conditions
# Protocol: as §3
# [10] = tested on: human telomeric sequence F21T G-quadruplex; assay: FRET melting experiments, F21T; assay type: binding; settings: 2 μM compound, 0.2 μM oligonucleotide, K+ conditions
# Protocol: as §3
# [11] = tested on: human duplex sequence FdxT; assay: FRET melting experiments, FdxT duplex control; assay type: binding; settings: 2 μM compound, 0.2 μM oligonucleotide, K+ conditions
# Protocol: as §3
# [12] = tested on: FPf1T (DNA, G4) GGGTTTAGGGTTTAGGGTTTAGGG; assay: FRET melting; settings: 10 mM K+, 90 mM Li+; 10 mM lithium cacodylate pH 7.2; 2 µM compound, 0.2 µM oligonucleotide
# [13] = tested on: FPf8T (DNA, G4) GGGTTCAGGGTTCAGGGTTCAGGG; assay: FRET melting; settings: 10 mM K+, 90 mM Li+; 10 mM lithium cacodylate pH 7.2; 2 µM compound, 0.2 µM oligonucleotide
# [14] = tested on: FtrypBT (FEBR1T; FtryBT) (DNA, G4) GGGCAGGGGGTGATGGGGAGGAGCCAGGG; assay: FRET melting; settings: 10 mM K+, 90 mM Li+; 10 mM lithium cacodylate pH 7.2; 2 µM compound, 0.2 µM oligonucleotide
# [15] = tested on: FdxT (DNA, duplex, hexaethylene glycol linker between nucleotides 10 and 11) TATAGCTATATATAGCTATA; assay: FRET melting; settings: 10 mM K+, 90 mM Li+; 10 mM lithium cacodylate pH 7.2; 2 µM compound, 0.2 µM oligonucleotide
# human HepG2 cells = assay: Cytotoxicity evaluation, MTT; assay type: cell-based; settings: HepG2 cells; 72 h
# Summary of the method: as §2
SMILES,ΔTm [1],IC50 [2],IC50 [3],IC50 [4],IC50 [5],CC50 at 72 h [6],ΔTm FPf1T [7],ΔTm FPf8T [8],ΔTm FtrypBT [9],ΔTm F21T [10],ΔTm FdxT [11],ΔTm [12],ΔTm [13],ΔTm [14],ΔTm [15],CC50 (human HepG2 cells)
COc1ccc2c(-c3ccc(CNCCCCN(C)C)cc3)nc(-c3ccc(CNCCCCN(C)C)cc3)cc2c1,23.2 ± 0.6 °C,–,–,–,–,–,–,–,–,–,–,–,–,–,–,–
"CN(C)CCNCc1ccc(-c2cc(-c3ccc(CNCCN(C)C)cc3)c3ccccc3n2)cc1 [Compound 1c, 2,4-Bis{4-[(2-dimethylaminoethyl)aminomethyl]phenyl}quinoline]",–,0.34 ± 0.037 µM,0.032 ± 0.004 µM,≥ 10 µM,1.48 ± 0.085 µM,3.1 ± 0.9 µM,2.3 ± 0.7 °C,2.7 ± 0.2 °C,2.6 ± 0.4 °C,2.8 ± 1.3 °C,−0.5 ± 0.4 °C,–,–,–,–,–
"COc1ccc2nc(-c3ccc(CNCCN(C)C)cc3)nc(-c3ccc(CNCCN(C)C)cc3)c2c1 [Compound 3j, 6-Methoxy-2,4-bis{4-[(2-dimethylaminoethyl)aminomethyl]phenyl}quinazoline]",–,1.23 ± 0.15 µM,0.56 ± 0.02 µM,≥ 10 µM,1.04 ± 0.085 µM,3.12 ± 0.2 µM,3.4 ± 0.4 °C,3.1 ± 0.4 °C,4.4 ± 0.5 °C,7.2 ± 0.4 °C,−0.4 ± 0.2 °C,–,–,–,–,–
COc1ccc2nc(-c3ccc(CNCCCCN(C)C)cc3)nc(-c3ccc(CNCCCCN(C)C)cc3)c2c1,–,–,–,–,–,–,–,–,–,–,–,19.8 ± 0.6 °C,–,–,–,–
"CN(C)CCCNCc1ccc(-c2cc3ccccc3c(-c3ccc(CNCCCN(C)C)cc3)n2)cc1 [Compound 2b, 1,3-Bis{4-[(3-dimethylaminopropyl)aminomethyl]phenyl}isoquinoline]",–,3.02 ± 0.25 µM,1.82 ± 0.31 µM,≥ 10 µM,0.35 ± 0.049 µM,3.47 ± 0.3 µM,13.6 ± 1.3 °C,13.0 ± 1.1 °C,11.7 ± 0.6 °C,12.7 ± 0.3 °C,0.3 ± 0.2 °C,–,–,–,–,–
"COc1ccc2c(-c3ccc(CNCCCCN(C)C)cc3)nc(-c3ccc(CNCCCCN(C)C)cc3)nc2c1 [Compound 3m, 7-Methoxy-2,4-bis{4-[(4-dimethylaminobutyl)aminomethyl]phenyl}quinazoline]",–,4.22 ± 0.55 µM,1.18 ± 0.43 µM,≥ 10 µM,0.75 ± 0.06 µM,25.1 ± 1.2 µM,18.3 ± 0.7 °C,17.8 ± 0.5 °C,13.8 ± 0.5 °C,19.4 ± 0.4 °C,1.7 ± 0.3 °C,–,–,–,–,–
c1cc(CNCCN2CCOCC2)cc(-c2nc(-c3cccc(CNCCN4CCOCC4)c3)c3ccccc3n2)c1,0.1 ± 0.1 °C,–,–,–,–,–,–,–,–,–,–,0.5 ± 0.3 °C,0.5 ± 0.4 °C,0.6 ± 0.1 °C,–,–
COc1ccc2cc(-c3ccc(CNCCCCN(C)C)cc3)nc(-c3ccc(CNCCCCN(C)C)cc3)c2c1,22.2 ± 0.1 °C,–,–,–,–,–,–,–,–,–,–,27.3 ± 1.1 °C,26.6 ± 0.2 °C,24.0 ± 0.3 °C,4.1 ± 0.3 °C,–
"CN(C)CCCNCc1ccc(-c2cc(-c3ccc(CNCCCN(C)C)cc3)c3ccccc3n2)cc1 [Compound 1b, 2,4-Bis{4-[(3-dimethylaminopropyl)aminomethyl]phenyl}quinoline]",–,0.88 ± 0.14 µM,0.47 ± 0.06 µM,≥ 10 µM,0.82 ± 0.022 µM,4.09 ± 0.2 µM,8.4 ± 1.0 °C,9.9 ± 0.1 °C,7.8 ± 1.2 °C,12.7 ± 0.6 °C,0.0 ± 0.7 °C,–,–,–,–,–
"COc1ccc2cc(-c3ccc(CNCCCCN(C)C)cc3)nc(-c3ccc(CNCCCCN(C)C)cc3)c2c1 [Compound 2e, 7-Methoxy-1,3-bis{4-[(4-dimethylaminobutyl)aminomethyl]phenyl}isoquinoline]",–,6.06 ± 0.64 µM,4.41 ± 0.51 µM,≥ 10 µM,0.55 ± 0.122 µM,9.57 ± 1 µM,27.3 ± 1.1 °C,26.6 ± 0.2 °C,24.0 ± 0.3 °C,22.2 ± 0.1 °C,4.1 ± 0.3 °C,–,–,–,–,–
"N=C(N)c1ccc(OCCCCCOc2ccc(C(=N)N)cc2)cc1 [Pentamidine, reference compound]",–,–,–,5.5 ± 0.8 µM,0.0002 ± 6e-05 µM,–,–,–,–,–,–,–,–,–,–,2.3 ± 0.5 µM
